Here are results for four compounds from PMC8396344, “Palmitoylation of Prolactin-Releasing Peptide Increased Affinity for and Activation of the GPR10, NPFF-R2 and NPFF-R1 Receptors: In Vitro Study” (International Journal of Molecular Sciences, 2021).

Starred links: 1 amine or outer side, 2 acyl side, 3 side chain; linkers in the order of their positions; H or OH if unused. Non-standard residues stand in square brackets, D forms with d. Residues, ends and D or L forms follow the SMILES beside them. Groups on a side chain read outwards from the residue. *: point of attachment. γGlu = O=C(O)[C@H](CCC(=O)[*:2])N[*:1]; Palmitoyl = CCCCCCCCCCCCCCCC(=O)*; NMeF = CN[C@@H](Cc1ccccc1)C(=O)O Some results are limits rather than exact numbers.

One test deals with kappa-opioid receptor (UniProt P41145 1-380). Nature of the test: radioligand binding; saturation with [^125I]-dynorphin on KOR.
In test [1] the target is T1, GPR10 (Homo sapiens, UniProt P49683).
T1 construct: host or cells: CHO-K1
T1 sequence (P49683 1-370): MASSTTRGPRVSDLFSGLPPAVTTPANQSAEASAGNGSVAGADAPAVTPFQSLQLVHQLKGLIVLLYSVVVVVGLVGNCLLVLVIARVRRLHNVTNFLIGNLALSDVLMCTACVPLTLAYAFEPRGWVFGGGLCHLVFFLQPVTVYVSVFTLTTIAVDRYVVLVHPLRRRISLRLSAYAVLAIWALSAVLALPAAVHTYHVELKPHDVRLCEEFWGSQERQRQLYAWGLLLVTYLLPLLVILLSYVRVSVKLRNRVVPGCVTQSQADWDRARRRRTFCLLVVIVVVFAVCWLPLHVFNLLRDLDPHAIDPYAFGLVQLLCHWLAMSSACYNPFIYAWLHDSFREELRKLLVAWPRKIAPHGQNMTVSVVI
Nature of the test: Competitive binding, [^125I]-PrRP31, CHO-K1 cells expressing GPR10. The following applies: competition with [^125I]-PrRP31, CHO-K1 cells expressing human GPR10; mean ± SEM, 2–5 independent experiments in duplicates; Cheng-Prusoff; read-out: Ki GPR10 [^125I]-PrRP31.

The next test addresses T2, NPFF-R2 (Homo sapiens, UniProt Q9Y5X5).
T2 construct: host or cells: CHO-K1 (AequoScreen, co-expressing aequorin)
The test is described as follows: Intracellular Ca^2+ mobilization, AequoScreen CHO-K1 cells with NPFF-R2. The format is cell-based. The following applies: CHO-K1 NPFF-R2 aequorin cells; peptides 10^−12 to 10^−5 M; mean ± SEM, three times in duplicates; read-out: EC50 intracellular Ca^2+ release, NPFF-R2. Here is the method: The intracellular Ca^2+ level was measured using the AequoScreen stable CHO-K1 cell line containing NPFF-R2 purchased from Perkin Elmer according to the manufacturer’s protocol. Cells at 80–90% confluence cultured in media without selective antibiotics were detached (PBS pH 7.4 + 0.5 mM EDTA) and centrifuged. Cells resuspended in phenol red-free DMEM with 0.1% protease-free BSA and 5 µM coelenterazine h (Thermo Fisher Scientific Inc. Brand) were seeded at 50,000 cells/well in 96-well plates and incubated in the dark at RT with gentle agitation for 4 h. Peptides were tested at concentrations from 10^−12 to 10^−5 M. Luminescent light emission was recorded using a FlexStation 3 plate reader.
Ca^2+ release assay data are shown as the percentage of maximal response, and the results were analyzed by nonlinear regression as log agonist versus response using GraphPad software. Data are representative of at least three experiments, each performed in duplicate.

A further test concerns the target T3, Y1 (Homo sapiens, UniProt P25929).
T3 construct: host or cells: U2OS
T3 sequence (P25929 1-384): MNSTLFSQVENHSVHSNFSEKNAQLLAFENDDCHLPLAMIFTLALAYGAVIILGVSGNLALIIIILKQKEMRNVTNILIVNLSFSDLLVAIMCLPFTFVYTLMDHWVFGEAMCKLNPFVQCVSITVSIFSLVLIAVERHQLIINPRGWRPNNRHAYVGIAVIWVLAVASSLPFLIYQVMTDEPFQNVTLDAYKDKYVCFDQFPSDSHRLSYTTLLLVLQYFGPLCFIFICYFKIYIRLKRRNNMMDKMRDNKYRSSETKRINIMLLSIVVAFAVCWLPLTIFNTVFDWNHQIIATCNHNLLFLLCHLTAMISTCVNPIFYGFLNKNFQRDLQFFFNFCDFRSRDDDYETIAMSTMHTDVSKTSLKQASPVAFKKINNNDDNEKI
The test is described as follows: Competitive and saturation binding, [^125I]-PYY, U2OS cells with Y1. As to the method: (§1) Competition binding experiments were performed according to [45]. […] Binding experiments using U2OS cells were optimized and performed in assay buffer (50 mM Tris-Cl pH 7.4, 118 mM NaCl, 5 mM MgCl2, 4.7 mM KCl, 0.1% BSA) for cells stably expressing GHSR and (25 mM HEPES, 120 mM NaCl, 5 mM MgCl2, 4.7 mM KCl, 1 mM CaCl2, 0.5% BSA, 2 g/L glucose) for cells containing receptors Y1, Y2 and Y5. […] Cells were incubated for 60 min at room temperature (RT).
(§2) Experiments were carried out in duplicate at least three times, and Ki was calculated using the Cheng-Prusoff equation.
(§3) Data were analyzed by GraphPad Software (San Diego, CA, USA) and are presented as the means ± SEM. The saturation and competitive binding experiments were analyzed according to [46] using the Cheng-Prusoff equation [33]. The competitive binding curves were plotted compared to the best fit for single-binding site models, and half maximal inhibitory concentration (IC50) values were obtained from nonlinear regression analysis. From saturation binding experiments, the dissociation constant (Kd) and number of binding sites/cell (Bmax) were calculated. Inhibition constants (Ki) were calculated from IC50 values, Kd and the concentration of radioligands.

A further test addresses T4, Y2 (Homo sapiens, UniProt P49146).
T4 construct: host or cells: U2OS
T4 sequence (P49146 1-381): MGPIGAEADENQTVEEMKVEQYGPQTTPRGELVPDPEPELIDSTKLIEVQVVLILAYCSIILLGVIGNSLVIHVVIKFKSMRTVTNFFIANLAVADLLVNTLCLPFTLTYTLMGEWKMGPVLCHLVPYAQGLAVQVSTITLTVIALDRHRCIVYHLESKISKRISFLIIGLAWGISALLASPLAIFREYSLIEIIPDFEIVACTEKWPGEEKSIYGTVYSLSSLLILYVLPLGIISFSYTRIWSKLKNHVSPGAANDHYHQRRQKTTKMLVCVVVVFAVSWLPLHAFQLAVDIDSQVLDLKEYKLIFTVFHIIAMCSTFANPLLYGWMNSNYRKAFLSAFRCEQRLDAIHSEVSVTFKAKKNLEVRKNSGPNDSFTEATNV
The test is described as follows: Competitive and saturation binding, [^125I]-PYY, U2OS cells with Y2. Here is the method: as §1, §2, §3

Test [2] deals with T1, GPR10. The test is described as follows: Cell signaling by immunoblotting, CHO-K1 cells expressing GPR10. Format: cell-based. The following applies: dose-response 10^−11 to 10^−5 M, 5 min, 37 °C, immunoblot, at least two experiments. Here is the method:
Activation of signaling pathways was studied in the CHO-K1 cell lines containing GPR10, NPFF-R2 and NPFF-R1. Cells were seeded in 24-well plates at 30,000 cells/well in assay medium (growth medium without selective antibiotics) and were grown for 2 days. The day before the experiment, the medium was changed to serum-free medium. […] Cells were lysed with Laemmli sample buffer (62.5 mM Tris-HCl at pH 6.8, 2% SDS, 10% glycerol, 0.01% bromophenol blue, 5% β-mercaptoethanol, 50 mM NaF, and 1 mM Na3VO4). Samples were stored at −20 °C. Electrophoresis and immunoblotting were performed as described previously. For detection of signaling pathways, primary monoclonal antibodies (see Table 5 for the antibodies used) purchased from Cell Signaling Technology (Danvers, MA, USA) were used.
Experiments using immunoblotting were analyzed using one-way ANOVA followed by Dunnett’s post hoc test; p < 0.05 was considered statistically significant. Dose-response curves were obtained from nonlinear regression.

In a further test the target is T5, KOR (Homo sapiens, UniProt P41145).
T5 construct: host or cells: CHO-K1
The test is described as follows: cell-based.

Another test concerns the target T6, DOR (Homo sapiens, UniProt P41143).
T6 construct: host or cells: U2OS
The test is described as follows: Beta-lactamase reporter gene assay (FRET), DOR. The following applies: β-lactamase assay, agonist mode, U2OS cells; mean ± SEM, 2–3 independent experiments in duplicates. Format: cell-based.

The next test has as its target T7, MOR (Homo sapiens, UniProt P35372).
T7 construct: host or cells: U2OS
The test is described as follows: Beta-lactamase reporter gene assay (FRET), MOR. The format is cell-based.

The next test deals with T8, ORL-1 (Homo sapiens, UniProt P41146).
T8 construct: host or cells: U2OS
Nature of the test: Beta-lactamase reporter gene assay (FRET), ORL-1. Format: cell-based. The following applies: β-lactamase assay, agonist mode, U2OS cells; mean ± SEM, 2–3 independent experiments in duplicates.

The target in another test is ghrelin receptor (UniProt Q92847 1-366). Nature of the test: radioligand binding; saturation with [^125I]-ghrelin on GHSR.
ghrelin receptor, sequence (Q92847 whole entry): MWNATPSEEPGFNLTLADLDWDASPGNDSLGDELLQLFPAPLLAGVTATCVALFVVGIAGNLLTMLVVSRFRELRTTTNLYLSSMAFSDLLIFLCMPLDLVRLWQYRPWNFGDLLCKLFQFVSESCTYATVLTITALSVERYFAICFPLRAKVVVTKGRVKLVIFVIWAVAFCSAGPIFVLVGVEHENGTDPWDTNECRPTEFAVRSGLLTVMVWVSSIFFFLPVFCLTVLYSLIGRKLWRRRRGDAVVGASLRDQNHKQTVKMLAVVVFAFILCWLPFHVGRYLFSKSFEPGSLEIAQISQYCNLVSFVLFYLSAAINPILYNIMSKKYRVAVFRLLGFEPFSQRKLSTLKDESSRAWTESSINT

T2 sequence (Q9Y5X5 whole entry): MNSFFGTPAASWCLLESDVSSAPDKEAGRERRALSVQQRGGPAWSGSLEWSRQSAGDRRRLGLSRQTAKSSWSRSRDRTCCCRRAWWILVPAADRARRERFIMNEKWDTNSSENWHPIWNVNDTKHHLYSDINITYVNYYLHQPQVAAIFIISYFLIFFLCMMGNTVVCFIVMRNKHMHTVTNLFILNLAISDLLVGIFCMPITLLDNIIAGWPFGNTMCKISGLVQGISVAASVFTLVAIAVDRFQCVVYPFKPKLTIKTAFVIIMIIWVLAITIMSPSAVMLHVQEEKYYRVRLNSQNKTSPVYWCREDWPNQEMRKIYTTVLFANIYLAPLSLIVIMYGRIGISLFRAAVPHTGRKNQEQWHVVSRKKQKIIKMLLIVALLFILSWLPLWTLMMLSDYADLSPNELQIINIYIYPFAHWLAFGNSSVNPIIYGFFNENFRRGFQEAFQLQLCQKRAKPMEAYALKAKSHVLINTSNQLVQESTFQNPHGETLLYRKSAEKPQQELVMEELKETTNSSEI
T5 sequence (P41145 whole entry): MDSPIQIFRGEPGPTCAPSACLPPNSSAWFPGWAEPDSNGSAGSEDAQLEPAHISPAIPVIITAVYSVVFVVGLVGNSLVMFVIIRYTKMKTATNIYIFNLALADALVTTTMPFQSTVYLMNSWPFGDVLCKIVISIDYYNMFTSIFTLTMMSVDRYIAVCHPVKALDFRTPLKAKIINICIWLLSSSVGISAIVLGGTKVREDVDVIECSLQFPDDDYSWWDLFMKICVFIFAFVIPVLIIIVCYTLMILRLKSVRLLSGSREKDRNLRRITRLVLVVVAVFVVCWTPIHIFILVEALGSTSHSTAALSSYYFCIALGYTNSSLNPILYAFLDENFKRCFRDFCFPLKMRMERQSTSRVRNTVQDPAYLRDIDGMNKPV
kappa-opioid receptor, sequence (P41145 whole entry): as above
T6 sequence (P41143 whole entry): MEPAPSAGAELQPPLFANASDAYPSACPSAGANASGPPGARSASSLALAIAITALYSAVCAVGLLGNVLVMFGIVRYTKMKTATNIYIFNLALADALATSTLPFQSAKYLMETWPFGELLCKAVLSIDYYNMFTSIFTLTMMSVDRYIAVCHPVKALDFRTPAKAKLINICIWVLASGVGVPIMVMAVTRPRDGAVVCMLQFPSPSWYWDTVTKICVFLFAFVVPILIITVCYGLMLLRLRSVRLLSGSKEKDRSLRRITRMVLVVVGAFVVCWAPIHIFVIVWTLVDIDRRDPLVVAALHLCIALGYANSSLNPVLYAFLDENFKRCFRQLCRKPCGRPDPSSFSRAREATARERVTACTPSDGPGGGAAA
T7 sequence (P35372 whole entry): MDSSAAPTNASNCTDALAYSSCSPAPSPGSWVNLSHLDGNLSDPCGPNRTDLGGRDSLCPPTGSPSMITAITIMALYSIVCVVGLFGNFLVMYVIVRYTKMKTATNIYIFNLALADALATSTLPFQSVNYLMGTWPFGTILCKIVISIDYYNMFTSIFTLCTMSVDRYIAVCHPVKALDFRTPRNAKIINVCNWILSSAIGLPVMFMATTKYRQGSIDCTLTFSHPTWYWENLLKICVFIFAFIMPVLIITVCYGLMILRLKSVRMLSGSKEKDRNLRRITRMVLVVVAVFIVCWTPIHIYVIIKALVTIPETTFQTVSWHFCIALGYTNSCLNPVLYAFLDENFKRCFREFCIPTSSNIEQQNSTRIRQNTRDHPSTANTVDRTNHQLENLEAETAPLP
T8 sequence (P41146 whole entry): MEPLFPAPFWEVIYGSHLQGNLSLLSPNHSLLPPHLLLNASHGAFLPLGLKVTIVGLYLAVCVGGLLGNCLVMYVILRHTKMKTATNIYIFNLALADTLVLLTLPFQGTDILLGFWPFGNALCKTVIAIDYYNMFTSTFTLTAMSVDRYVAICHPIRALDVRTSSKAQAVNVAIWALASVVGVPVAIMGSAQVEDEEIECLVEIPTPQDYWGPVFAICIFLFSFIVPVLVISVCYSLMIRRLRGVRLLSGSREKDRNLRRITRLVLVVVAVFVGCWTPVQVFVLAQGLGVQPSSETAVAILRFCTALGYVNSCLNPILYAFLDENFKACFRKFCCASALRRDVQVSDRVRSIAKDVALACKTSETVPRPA

For the compound [^125I]-dynorphin A (peptide), in the test with kappa-opioid receptor, the Kd worked out at 2.38 nM. This lies in the single-digit nanomolar range.

For the compound `CC(C)C[C@H](NC(=O)[C@H](N)Cc1ccc(O)cc1)C(=O)N(C)[C@@H](Cc1ccccc1)C(=O)N[C@@H](CCC(N)=O)C(=O)N1CCC[C@H]1C(=O)N[C@@H](CCC(N)=O)C(=O)N[C@@H](CCCN=C(N)N)C(=O)N[C@@H](Cc1ccccc1)C(N)=O` [1DMe] (H-[dY]L[NMeF]QPQRF-NH2), the Ki on GPR10 [1] is more than 10000 nM. For the same compound, the 50% effective concentration (EC50) on NPFF-R2 was determined as 0.82 ± 0.15 nM.

As for `CCCCCCCCCCCCCCCC(=O)N[C@@H](CCC(=O)NCCCC[C@H](NC(=O)[C@@H](NC(=O)[C@H](CCC(=O)O)NC(=O)[C@H](CCSC)NC(=O)[C@H](CO)NC(=O)[C@H](Cc1c[nH]cn1)NC(=O)[C@H](CCCNC(=N)N)NC(=O)[C@H](Cc1c[nH]cn1)NC(=O)[C@@H](NC(=O)[C@H](CCCNC(=N)N)NC(=O)[C@@H](N)CO)[C@@H](C)O)[C@@H](C)CC)C(=O)N[C@H](C(=O)N1CCC[C@H]1C(=O)N[C@@H](CC(=O)O)C(=O)N[C@H](C(=O)N[C@@H](CC(N)=O)C(=O)N1CCC[C@H]1C(=O)N[C@@H](C)C(=O)N[C@@H](Cc1c[nH]c2ccccc12)C(=O)N[C@@H](Cc1ccc(O)cc1)C(=O)N[C@@H](C)C(=O)N[C@@H](CO)C(=O)N[C@@H](CCCNC(=N)N)C(=O)NCC(=O)N[C@H](C(=O)N[C@@H](CCCNC(=N)N)C(=O)N1CCC[C@H]1C(=O)N[C@H](C(=O)NCC(=O)N[C@@H](CCCNC(=N)N)C(=O)N[C@@H](Cc1ccccc1)C(N)=O)C(C)C)[C@@H](C)CC)[C@@H](C)CC)[C@@H](C)O)C(=O)O` [Palm^11-PrRP31] (H-SRTHRHSMEIK([γGlu-Palmitoyl])TPDINPAWYASRGIRPVGRF-NH2), the Ki on Y1 and on Y2 was more than 10000 nM throughout. The EC50 on NPFF-R2 was 18.7 ± 1.31 nM; on KOR, more than 10000 nM; at DOR it was more than 10000 nM; at MOR, more than 10000 nM; at ORL-1, more than 10000 nM. Moreover, on GPR10 [2], the “EC50 of ERK activation” value is given as “in the nanomolar range”.

Compound [^125I]-ghrelin (peptide) showed an equilibrium dissociation constant (Kd) with ghrelin receptor of 0.44 nM.
